In publication PMC8892092 (The Journal of Biological Chemistry, 2022):

Tests used:
LuHNL [1] = target: T1, LuHNL (Linum usitatissimum, UniProt P93243, V117T); format: binding; set-up: E. coli SHuffle T7
LuHNL [2] = target: T1, LuHNL
LuHNL [3] = target: LuHNL (Linum usitatissimum, UniProt P93243, V117T/F340A)
LuHNL [4] = target: T1, LuHNL; format: binding; set-up: E. coli SHuffle T7; remark: listed apart in the source
LuHNL [5] = target: T1, LuHNL; format: binding; set-up: E. coli SHuffle T7; remark: listed apart in the source
[6] = target: the molecule itself; experiment: crystal structure; X-ray crystal structures of N-His-LuHNL (ligand-free with glycerol, soaked with acetone cyanohydrin, soaked with (rac)-2-butanone cyanohydrin); sitting drop, 20 °C, 0.1 M BIS-TRIS pH 6.5, 20% PEG MME 5,000; space group P2_(1), two dimers per asymmetric unit

## NC(=O)c1ccc[n+]([C@@H]2O[C@H](COP(=O)(O)OP(=O)(O)OC[C@H]3O[C@@H](n4cnc5c(N)ncnc54)[C@H](O)[C@@H]3O)[C@@H](O)[C@H]2O)c1 [NAD^+]
LuHNL [1]
  X-ray crystal structure, 1.48 Å; NAD+ quantitation: electron density of NAD^+ was observed in the crystal without the addition of exogenous NAD^+

## CC(C)(O)C#N [CNH, acetone cyanohydrin]
LuHNL [2]
  Km: 2.7 ± 0.3 mM
LuHNL [3]
  Km: 5.4 ± 2.3 mM
LuHNL [4]
  X-ray crystal structure, 1.58 Å: The structures for acetone cyanohydrin (CNH) complexed LuHNL (LuHNL_CNH)

## CC[C@@](C)(O)C#N [(R)-BCN, (R)-2-butanone cyanohydrin]
LuHNL [5]
  X-ray crystal structure, 1.72 Å: (R)-2-butanone cyanohydrin (BCN) complexed LuHNL (LuHNL_BCN) were determined

B1: Hydroxynitrile lyase from Linum usitatissimum (LuHNL), N-terminally His-tagged (enzyme)
chain: MASLPVSFAKPDKNGVITCKAIMLKEAKLPGMSYADTVQIIDIQVDPPQNVELRVKMLCASVCRTDILTIEGFMAPTQFPKINGHEGVGIIESMGPDTKNFKVGDVIVAPTLGECQTCSSCRSGRTNFCQNYGANESALEPDGTSRFSYIDSDGKKKLLYYKLGCSTWTQYMVVDSNYATKLNEIAPELPPPHGSILSCAFATGYGAVWLDAAVQEGDSVAIFGVGSVGISAVIAAKELKAKQIIVVDRNEYKLKMAMELGATHCINSEKLPEGVTPSQAVRKLTPKEVGVDASIESSGYDVFMNEAMKAAIHGKAKTVITGEGIYENDRIFFDFKDFLFGGNVVGNVTGRVRIHSDFPGLLRKAQEPVIRAGMDKILGYDAATMKCKYEVDIREGTPALLKALEEVENVDCVKLVIKLNDY
modifications: S-nitrosylation of Cys265 proposed from the electron density in the crystal (not detected in LuHNL solution)
notes: Hydroxynitrile lyase from Linum usitatissimum, gene of GenBank AF024588.1 (protein AAB81956.1), which has Thr117; Each subunit holds one NAD+, two Zn2+ and one Mg2+; The gene was cloned between NdeI and BamHI of pET-15b; also called N-His-LuHNL; LuHNL-wild; source: SHuffle T7 Express E. coli, pET-15b, purified (Ni Sepharose, Mono Q)
[6]
  stoichiometry N: 2
